Assay results reported in US8183252B2, “Heterocyclic aspartyl protease inhibitors” (Schering Corporation, priority 2007, dated 2012).

Target: T1, Mature human Renin (Homo sapiens, UniProt P00797)
T1 construct: The prodomain of the recombinant human renin-V5-6His was removed by limited proteolysis using immobilized TPCK-trypsin to give mature-human renin; V5 (C); 6His (C); made in house
T1 sequence (P00797 67-406): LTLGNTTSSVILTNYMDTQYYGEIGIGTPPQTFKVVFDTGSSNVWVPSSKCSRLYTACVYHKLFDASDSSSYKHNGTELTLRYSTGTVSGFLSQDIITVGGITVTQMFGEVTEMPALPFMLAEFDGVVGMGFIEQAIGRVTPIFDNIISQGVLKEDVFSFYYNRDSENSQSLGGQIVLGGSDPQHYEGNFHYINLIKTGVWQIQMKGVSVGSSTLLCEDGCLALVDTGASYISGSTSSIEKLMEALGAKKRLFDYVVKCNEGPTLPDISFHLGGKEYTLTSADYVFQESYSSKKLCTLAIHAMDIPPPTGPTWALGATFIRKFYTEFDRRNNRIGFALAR
Test: Human Mature Renin Enzyme Assay (FRET)
Format: biochemical
Settings: 100 μM compound; percent decrease in renin induced fluorescence after 40 min at 30 degrees celsius
Source text: Human Renin was cloned from a human kidney cDNA library and C-terminally epitope-tagged with the V5-6His sequence into pCDNA3.1. pCNDA3.1-Renin-V5-6His was stably expressed in HEK293 cells and purified to >80% using standard Ni-Affinity chromatography. The prodomain of the recombinant human renin-V5-6His was removed by limited proteolysis using immobilized TPCK-trypsin to give mature-human renin. Renin enzymatic activity was monitored using a commercially available fluorescence resonance energy transfer (FRET) peptide substrate, RS-1 (Molecular Probes, Eugene, Oreg.) in 50 mM Tris-HCl pH 8.0, 100 mM NaCl, 0.1% Brij-35 and 5% DMSO buffer for 40 mins at 30 degrees celsius in the presence or absence of different concentrations of test compounds. Mature human Renin was present at approximately 200 nM. Inhibitory activity was defined as the percent decrease in renin induced fluorescence at the end of the 40 min incubation compared to vehicle controls and samples lacking enzyme.

Compound	% inhibition of renin at 100 μM
CCC[C@H]1CN(Cc2ccc(CN3C(=N)NC(CCC4CCCCC4)(CC4CCCCC4)C3=O)cc2)C(=O)N1 (stereo partly drawn)	75.3%
CN1C(=N)N[C@](CCC2CCCCC2)(C[C@H]2CCC[C@@H](Nc3cccnc3)C2)C1=O	68.8%
CCC[C@H]1CN(Cc2ccc(CN3C(=N)N[C@](CCC4CCCCC4)(CC4CCCCC4)C3=O)cc2)C(=O)N1	76.9%
